Measured values as given in the supplement of paper PMC10307832.

What was measured:
Experiment in all cases: relative viability (nuclei count vs DMSO), 5 days (fraction); higher = more cells survive
Dabrafenib + Palbociclib = compound: CC(C)(C)c1nc(-c2cccc(NS(=O)(=O)c3c(F)cccc3F)c2F)c(-c2ccnc(N)n2)s1 [Dabrafenib] + CC(=O)c1c(C)c2cnc(Nc3ccc(N4CCNCC4)cn3)nc2n(C2CCCC2)c1=O [Palbociclib] (partner 0.5 µM)
How it was run: (§1)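 Relative viability is defined as nuclei in treated wells over nuclei in vehicle wells. Duplicate plates were run and medians reported. Lung cancer cell lines in 1536-well plates were dosed by pin tool one day after seeding, with one drug or with a fixed anchor-drug dose plus five library-drug doses (not always all listed) in √10 steps, and nuclei were counted after 5 days.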

Dabrafenib + Luminespib = compound: CC(C)(C)c1nc(-c2cccc(NS(=O)(=O)c3c(F)cccc3F)c2F)c(-c2ccnc(N)n2)s1 [Dabrafenib] + CCNC(=O)c1noc(-c2cc(C(C)C)c(O)cc2O)c1-c1ccc(CN2CCOCC2)cc1 [Luminespib] (partner 0.01 µM)
How it was run: as §1

Dabrafenib + AZD7762 = compound: CC(C)(C)c1nc(-c2cccc(NS(=O)(=O)c3c(F)cccc3F)c2F)c(-c2ccnc(N)n2)s1 [Dabrafenib] + NC(=O)Nc1cc(-c2cccc(F)c2)sc1C(=O)N[C@H]1CCCNC1 [AZD7762] (partner 0.2 µM)
How it was run: as §1

VX-702 + Palbociclib = compound: NC(=O)c1ccc(N(C(N)=O)c2c(F)cccc2F)nc1-c1ccc(F)cc1F [VX-702] + CC(=O)c1c(C)c2cnc(Nc3ccc(N4CCNCC4)cn3)nc2n(C2CCCC2)c1=O [Palbociclib] (partner 0.5 µM)
How it was run: as §1

Cell Line	relative viability (Dabrafenib + Palbociclib; first compound 0.003 µM)	relative viability (Dabrafenib + Palbociclib; first compound 0.009487 µM)	relative viability (Dabrafenib + Palbociclib; first compound 0.03 µM)	relative viability (Dabrafenib + Palbociclib; first compound 0.09487 µM)	relative viability (Dabrafenib + Palbociclib; first compound 0.3 µM)	relative viability (Dabrafenib + Luminespib; first compound 0.003 µM)	relative viability (Dabrafenib + Luminespib; first compound 0.009487 µM)	relative viability (Dabrafenib + Luminespib; first compound 0.03 µM)	relative viability (Dabrafenib + Luminespib; first compound 0.09487 µM)	relative viability (Dabrafenib + Luminespib; first compound 0.3 µM)	relative viability (Dabrafenib + AZD7762; first compound 0.003 µM)	relative viability (Dabrafenib + AZD7762; first compound 0.009487 µM)	relative viability (Dabrafenib + AZD7762; first compound 0.03 µM)	relative viability (Dabrafenib + AZD7762; first compound 0.09487 µM)	relative viability (Dabrafenib + AZD7762; first compound 0.3 µM)	relative viability (VX-702 + Palbociclib; first compound 0.02 µM)	relative viability (VX-702 + Palbociclib; first compound 0.2 µM)	relative viability (VX-702 + Palbociclib; first compound 0.6325 µM)	relative viability (VX-702 + Palbociclib; first compound 2 µM)
201T	0.368	0.366	0.368	0.318	0.376	1.08	1.1	0.967	0.983	1.06	0.28	0.711	0.59	0.461	0.475	0.349	0.345	0.347	0.336
A-427	0.485	0.537	0.509	0.459	0.533	–	1	0.772	0.744	1.14	0.355	0.808	0.636	0.646	0.744	0.541	0.52	0.537	0.526
ABC-1	–	1.01	0.704	0.607	1.03	0.67	0.637	–	0.449	0.875	0.345	0.638	0.823	0.789	0.597	0.569	0.633	0.826	0.8
BEN	–	0.477	–	0.426	0.448	–	0.549	–	0.344	0.332	–	0.769	–	0.81	0.852	0.51	0.467	0.413	0.514
CAL-12T	0.461	0.486	0.599	0.388	0.722	0.362	0.517	0.408	0.445	0.32	0.59	0.626	0.661	0.594	0.703	0.427	0.507	0.496	0.347
COR-L23	0.25	0.328	0.245	0.275	0.207	0.648	0.76	0.544	0.603	0.771	–	–	–	–	–	0.271	0.312	0.323	0.341
COR-L 105	0.414	0.396	0.398	0.417	0.367	0.852	0.936	0.916	0.949	0.977	–	–	–	–	–	0.38	0.409	0.432	0.38
ChaGo-K-1	0.874	0.925	0.838	0.89	0.996	0.57	0.647	0.517	0.529	0.47	0.303	0.839	0.855	0.698	0.879	0.942	0.881	0.893	0.946
EKVX	–	0.41	0.387	0.383	0.445	0.996	1.03	0.852	0.819	0.897	–	0.749	0.588	0.676	0.72	0.355	0.38	0.343	0.301
EMC-BAC-2	–	0.497	0.448	0.427	0.418	1.16	1.23	1	1.13	1.28	–	1.13	0.967	0.728	0.782	0.5	0.489	0.501	0.481
EPLC-272H	–	0.318	0.286	0.366	0.354	0.156	0.233	0.467	0.272	0.546	–	0.283	0.174	0.207	0.155	0.312	0.343	0.316	0.311
H3255	0.288	0.313	0.343	0.313	0.333	0.699	0.961	0.908	0.96	0.871	0.791	0.94	0.908	0.758	1.16	0.304	0.317	0.318	0.315
HARA	–	0.325	–	0.304	0.338	0.83	0.818	–	0.621	0.726	–	0.392	0.46	0.368	0.312	0.278	0.227	0.226	0.254
HCC-15	0.714	0.779	0.769	0.729	0.78	0.379	0.634	0.285	0.0381	0.52	1.17	1.11	1.09	1.16	1.09	0.732	0.639	0.724	0.491
HCC-44	1.01	0.956	0.943	0.842	0.983	1.12	1.01	1.17	0.98	0.861	0.966	1.02	1.12	1.06	1	1.01	1	0.955	0.98
HCC-78	0.366	0.481	0.414	0.426	0.498	–	–	–	–	–	–	0.683	0.466	0.563	0.872	0.493	0.486	0.513	0.487
HCC-366	0.434	0.403	0.336	0.354	0.344	–	–	–	–	–	0.0302	0.288	0.29	0.309	0.16	0.409	0.412	0.389	0.333
HCC-827	0.465	0.3	0.374	–	0.525	0.387	0.986	0.308	–	0.518	0.129	0.234	0.216	–	0.276	0.452	0.462	0.446	0.316
HOP-62	0.466	0.423	0.433	0.471	0.498	0.936	0.878	0.977	0.795	0.872	0.088	0.449	0.493	0.424	0.452	0.487	0.479	0.451	0.551
